In patent US20230139171A1 (SITA Information Networking Computing UK Limited, priority 2019, published 2023):

Key:
Type in all cases: cell-based
human TLR9 = target: T1, human TLR9 (Homo sapiens, UniProt Q9NR96); test: TLR9 inhibition reporter assay (HEK-Blue cells, SEAP reporter, ODN2006 stimulation); conditions: HEK-Blue cells overexpressing human TLR9, SEAP reporter, ODN2006 5 nM
T1 construct: host or cells: HEK-Blue cells
T1 sequence (Q9NR96 26-1032): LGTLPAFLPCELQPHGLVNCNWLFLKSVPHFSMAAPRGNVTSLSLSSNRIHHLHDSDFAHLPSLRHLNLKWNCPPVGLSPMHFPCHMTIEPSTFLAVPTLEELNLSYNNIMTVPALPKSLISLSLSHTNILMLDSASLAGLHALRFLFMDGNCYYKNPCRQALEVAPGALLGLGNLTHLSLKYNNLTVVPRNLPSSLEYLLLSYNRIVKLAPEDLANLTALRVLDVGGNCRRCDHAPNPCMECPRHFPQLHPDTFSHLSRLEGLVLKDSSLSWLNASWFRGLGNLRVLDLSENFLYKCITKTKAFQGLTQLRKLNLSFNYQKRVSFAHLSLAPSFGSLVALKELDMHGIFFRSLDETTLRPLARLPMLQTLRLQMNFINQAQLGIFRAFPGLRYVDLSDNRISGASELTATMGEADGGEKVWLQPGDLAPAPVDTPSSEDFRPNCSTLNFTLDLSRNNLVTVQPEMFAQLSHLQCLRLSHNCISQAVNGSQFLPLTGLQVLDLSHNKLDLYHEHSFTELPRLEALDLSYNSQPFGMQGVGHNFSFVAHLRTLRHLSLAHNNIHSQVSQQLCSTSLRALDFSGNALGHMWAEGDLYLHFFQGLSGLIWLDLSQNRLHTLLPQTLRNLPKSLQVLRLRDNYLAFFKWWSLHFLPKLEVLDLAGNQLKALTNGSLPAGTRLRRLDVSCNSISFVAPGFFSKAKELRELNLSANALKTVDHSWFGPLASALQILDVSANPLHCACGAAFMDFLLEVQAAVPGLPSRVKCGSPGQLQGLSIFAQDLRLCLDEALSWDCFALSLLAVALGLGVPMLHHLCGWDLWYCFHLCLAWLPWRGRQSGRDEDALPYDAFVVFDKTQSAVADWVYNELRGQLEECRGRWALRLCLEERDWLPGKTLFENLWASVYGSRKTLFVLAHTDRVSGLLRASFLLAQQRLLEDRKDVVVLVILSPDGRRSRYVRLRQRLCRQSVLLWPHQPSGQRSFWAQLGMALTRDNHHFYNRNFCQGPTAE
Method in brief: (§1)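 Agonists used: gardiquimod 7.5 μM (TLR7), R848 15.9 μM (TLR8), ODN2006 5 nM (TLR9), added after 30 min room-temperature compound pre-treatment (0.05 nM–50 μM) of receptor-overexpressing HEK-Blue cells. SEAP reporter (NF-κB/AP-1 driven) read after 22 h at 37 °C; inhibition scaled between agonist+DMSO and reference-inhibitor wells.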

human TLR7 = target: T2, human TLR7 (Homo sapiens, UniProt Q9NYK1); test: TLR7 inhibition reporter assay (HEK-Blue cells, SEAP reporter, gardiquimod stimulation); conditions: HEK-Blue cells overexpressing human TLR7, SEAP reporter, gardiquimod 7.5 μM; read-out: TLR7 IC50
T2 construct: host or cells: HEK-Blue cells
T2 sequence (Q9NYK1 27-1049): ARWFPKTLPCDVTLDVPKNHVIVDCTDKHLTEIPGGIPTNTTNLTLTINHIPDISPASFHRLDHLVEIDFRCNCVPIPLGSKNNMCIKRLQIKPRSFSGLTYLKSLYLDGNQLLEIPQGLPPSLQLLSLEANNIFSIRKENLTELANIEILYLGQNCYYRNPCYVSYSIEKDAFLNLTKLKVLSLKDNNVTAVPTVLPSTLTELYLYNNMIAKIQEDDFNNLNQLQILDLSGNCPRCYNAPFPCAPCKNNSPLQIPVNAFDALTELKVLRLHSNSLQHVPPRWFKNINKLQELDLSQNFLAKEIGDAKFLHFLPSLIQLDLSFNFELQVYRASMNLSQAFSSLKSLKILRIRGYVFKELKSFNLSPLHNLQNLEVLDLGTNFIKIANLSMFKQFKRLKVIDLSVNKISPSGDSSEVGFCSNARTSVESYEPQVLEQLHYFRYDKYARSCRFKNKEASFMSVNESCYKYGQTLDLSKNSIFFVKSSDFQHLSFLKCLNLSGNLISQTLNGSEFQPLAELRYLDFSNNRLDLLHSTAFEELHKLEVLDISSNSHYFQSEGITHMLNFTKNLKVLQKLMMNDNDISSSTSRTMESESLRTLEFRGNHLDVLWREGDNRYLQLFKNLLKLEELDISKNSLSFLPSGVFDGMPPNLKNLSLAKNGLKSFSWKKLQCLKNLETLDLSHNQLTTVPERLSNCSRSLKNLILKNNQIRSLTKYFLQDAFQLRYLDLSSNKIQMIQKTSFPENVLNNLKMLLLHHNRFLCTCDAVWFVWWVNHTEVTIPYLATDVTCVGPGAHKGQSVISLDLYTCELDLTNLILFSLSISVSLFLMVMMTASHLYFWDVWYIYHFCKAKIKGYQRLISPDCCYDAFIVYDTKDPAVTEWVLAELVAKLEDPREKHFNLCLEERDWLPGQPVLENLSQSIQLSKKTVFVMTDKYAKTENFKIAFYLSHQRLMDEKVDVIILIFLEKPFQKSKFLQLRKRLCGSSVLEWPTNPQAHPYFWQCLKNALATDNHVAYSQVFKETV
Method in brief: as §1

human TLR8 = target: T3, human TLR8 (Homo sapiens, UniProt Q9NR97); test: TLR8 inhibition reporter assay (HEK-Blue cells, SEAP reporter, R848 stimulation); conditions: HEK-Blue cells overexpressing human TLR8, SEAP reporter, R848 15.9 μM; read-out: TLR8 IC50
T3 construct: host or cells: HEK-Blue cells
T3 sequence (Q9NR97 27-1041): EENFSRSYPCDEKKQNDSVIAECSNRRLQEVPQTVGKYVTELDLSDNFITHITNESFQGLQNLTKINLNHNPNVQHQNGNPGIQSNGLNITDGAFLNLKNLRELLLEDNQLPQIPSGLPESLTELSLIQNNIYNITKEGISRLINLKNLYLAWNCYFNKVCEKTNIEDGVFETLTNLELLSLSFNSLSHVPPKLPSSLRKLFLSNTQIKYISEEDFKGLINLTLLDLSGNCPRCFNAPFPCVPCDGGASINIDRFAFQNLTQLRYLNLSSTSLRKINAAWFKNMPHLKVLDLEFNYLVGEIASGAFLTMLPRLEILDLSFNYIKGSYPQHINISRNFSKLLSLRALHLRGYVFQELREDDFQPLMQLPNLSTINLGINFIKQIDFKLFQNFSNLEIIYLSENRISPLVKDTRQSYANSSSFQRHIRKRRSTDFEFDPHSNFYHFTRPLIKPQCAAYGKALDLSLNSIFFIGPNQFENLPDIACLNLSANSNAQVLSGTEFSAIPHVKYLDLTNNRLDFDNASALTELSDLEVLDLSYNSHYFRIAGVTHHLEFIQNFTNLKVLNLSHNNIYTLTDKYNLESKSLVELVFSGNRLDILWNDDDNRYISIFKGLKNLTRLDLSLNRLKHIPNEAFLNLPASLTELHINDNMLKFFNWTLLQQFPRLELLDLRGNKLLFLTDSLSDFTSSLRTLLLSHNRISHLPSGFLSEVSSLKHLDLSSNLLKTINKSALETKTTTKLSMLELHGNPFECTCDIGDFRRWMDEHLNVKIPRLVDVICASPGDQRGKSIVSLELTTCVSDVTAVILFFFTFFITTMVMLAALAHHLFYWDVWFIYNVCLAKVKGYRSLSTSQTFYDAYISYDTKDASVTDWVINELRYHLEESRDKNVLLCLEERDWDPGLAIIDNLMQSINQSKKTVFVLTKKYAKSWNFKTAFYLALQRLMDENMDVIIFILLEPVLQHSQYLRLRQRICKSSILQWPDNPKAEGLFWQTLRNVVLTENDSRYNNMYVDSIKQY
Method in brief: as §1

| Compound | IC50 (human TLR9) | IC50 (human TLR7) | IC50 (human TLR8) |
| --- | --- | --- | --- |
| CCC1(NC2CCC(c3nc4c(C(C)C)c(-c5cc(OC)c6ncnn6c5)[nH]c4s3)CC2)COC1 (single isomer, unassigned) [Example 95, 3-ethyl-N-(4-(6-isopropyl-5-(8-methoxy-[1,2,4]triazolo[1,5-a]pyridin-6-yl)-4H-pyrrolo[3,2-d]thiazol-2-yl)cyclohexyl)oxetan-3-amine] | 43200 nM | 11.7 nM | 23.8 nM |
| COc1cc(-c2[nH]c3sc(C4CCC(N5CC6(C5)CS(=O)(=O)C6)CC4)nc3c2C(C)C)cn2ncnc12 (single isomer, unassigned) [Example 96, 6-(4-(6-isopropyl-5-(8-methoxy-[1,2,4]triazolo[1,5-a]pyridin-6-yl)-4H-pyrrolo[3,2-d]thiazol-2-yl)cyclohexyl)-2-thia-6-azaspiro[3.3]heptane 2,2-dioxide] | 7770 nM | 1.53 nM | 0.98 nM |
| COc1cc(-c2[nH]c3sc(C4CCC(N5CCCC5)CC4)nc3c2C(C)C)cn2ncnc12 (single isomer, unassigned) [Example 98, 6-isopropyl-5-(8-methoxy-[1,2,4]triazolo[1,5-a]pyridin-6-yl)-2-(4-(pyrrolidin-1-yl)cyclohexyl)-4H-pyrrolo[3,2-d]thiazole] | 2980 nM | 0.12 nM | 1.37 nM |
| COc1cc(-c2[nH]c3sc(C4CCC(N5CCCC5)CC4)nc3c2C(C)C)cn2ncnc12 (single isomer, unassigned) [Example 99, 6-isopropyl-5-(8-methoxy-[1,2,4]triazolo[1,5-a]pyridin-6-yl)-2-(4-(pyrrolidin-1-yl)cyclohexyl)-4H-pyrrolo[3,2-d]thiazole] | 3610 nM | 1.19 nM | 36.7 nM |
| COc1cc(-c2[nH]c3sc(C4CCC(N5CC[C@@H](NC(C)=O)C5)CC4)nc3c2C(C)C)cn2ncnc12 (single isomer, unassigned) [Example 100] | 6400 nM | 78.9 nM | 114 nM |
| COc1cc(-c2[nH]c3sc(C4CCC(N5CC[C@@H](NC(C)=O)C5)CC4)nc3c2C(C)C)cn2ncnc12 (single isomer, unassigned) [Example 101] | 4790 nM | 3.68 nM | 23 nM |
| COc1cc(-c2[nH]c3sc(C4CCC(N5CCCOCC5)CC4)nc3c2C(C)C)cn2ncnc12 (single isomer, unassigned) [Example 102, 4-(4-(6-isopropyl-5-(8-methoxy-[1,2,4]triazolo[1,5-a]pyridin-6-yl)-4H-pyrrolo[3,2-d]thiazol-2-yl)cyclohexyl)-1,4-oxazepane] | 3890 nM | 0.37 nM | 14 nM |
| COc1cc(-c2[nH]c3sc(C4CCC(N5CCCOCC5)CC4)nc3c2C(C)C)cn2ncnc12 (single isomer, unassigned) [Example 103, 4-(4-(6-isopropyl-5-(8-methoxy-[1,2,4]triazolo[1,5-a]pyridin-6-yl)-4H-pyrrolo[3,2-d]thiazol-2-yl)cyclohexyl)-1,4-oxazepane] | 3600 nM | 48 nM | 3.46 nM |
| COc1cc(-c2[nH]c3sc(C4CCC(N5[C@@H]6CC[C@H]5COC6)CC4)nc3c2C(C)C)cn2ncnc12 (single isomer, unassigned) [Example 104] | 5600 nM | 1.98 nM | 2.81 nM |
| COc1cc(-c2[nH]c3sc(C4CCC(N5[C@@H]6CC[C@H]5COC6)CC4)nc3c2C(C)C)cn2ncnc12 (single isomer, unassigned) [Example 105] | 2180 nM | 1.38 nM | 43.2 nM |
| COc1cc(-c2[nH]c3sc(C4CCC(NC5(C)CCC5)CC4)nc3c2C(C)C)cn2ncnc12 (single isomer, unassigned) [Example 108, 4-(6-isopropyl-5-(8-methoxy-[1,2,4]triazolo[1,5-a]pyridin-6-yl)-4H-pyrrolo[3,2-d]thiazol-2-yl)-N-(1-methylcyclobutyl) cyclohexan-1-amine] | 5700 nM | 1.34 nM | 4.49 nM |
| COc1cc(-c2[nH]c3sc(C4CCC(NC5(C)CCC5)CC4)nc3c2C(C)C)cn2ncnc12 (single isomer, unassigned) [Example 109, 4-(6-isopropyl-5-(8-methoxy-[1,2,4]triazolo[1,5-a]pyridin-6-yl)-4H-pyrrolo[3,2-d]thiazol-2-yl)-N-(1-methylcyclobutyl) cyclohexan-1-amine] | 6090 nM | 6.81 nM | 27.9 nM |
| COc1cc(-c2[nH]c3sc(C4CCC(N5CC6(CCOCC6)C5)CC4)nc3c2C(C)C)cn2ncnc12 (single isomer, unassigned) [Example 110, 2-(4-(6-isopropyl-5-(8-methoxy-[1,2,4]triazolo[1,5-a]pyridin-6-yl)-4H-pyrrolo[3,2-d]thiazol-2-yl)cyclohexyl)-7-oxa-2-azaspiro[3.5]nonane] | 5780 nM | 2.21 nM | 0.93 nM |
